Patent US10842783B2, “Avibactam and carbapenems antibacterial agents” (THE JOHNS HOPKINS UNIVERSITY, priority 2017, dated 2020)
“Also recorded” adds a separate entry of the source. Where two headings read alike, the source gives them in different places.

What was measured:
[1] = tested on: M. abscessus ATCC 19977; test: Broth microdilution MIC of carbapenems with and without β-lactamase inhibitors, reference strain; assay type: cell-based, Mycobacterium abscessus; details: for Minimum inhibitory concentration, 7H9 + avibactam / Minimum inhibitory concentration, CAMHB + avibactam: avibactam at fixed 4 μg/mL; for Minimum inhibitory concentration, 7H9 + sulbactam: sulbactam at fixed 4 μg/mL; for Minimum inhibitory concentration, 7H9 + tazobactam: tazobactam at fixed 4 μg/mL; for MIC: Mycobacteroides abscessus; for Ability of the β-lactamase inhibitor to reduce MICs of carbapenems, in words: inhibitor at 4 μg/mL
Experimental: (§1) All strains were initially grown in 7H9 complete medium composed of Middlebrook 7H9 broth (Difco) supplemented with 0.5% glycerol, 10% oleic acid-albumin-dextrose-catalase and 0.05% Tween-80 at 37° C. with constant shaking. A standard broth microdilution method was used to determine MIC. Briefly, M. abscessus strains were grown as described above and these cultures, at exponential phase (A600 nm˜0.6-0.8), were used to inoculate 10^5 colony forming units (CFU) into each well of microtiter culture plates containing a carbapenem at two fold serial dilutions ranging from 256 to 0.25 μg/mL. An identical setup but with wells containing 4 μg/mL of avibactam was used to assess the effect of this agent on each carbapenem. Carbapenems studied were procured commercially from Sigma-Aldrich and include ertapenem, meropenem, imipenem, doripenem, biapenem, faropenem, tebipenem and panipenem. β-lactamase inhibitors sulbactam, tazobactam and avibactam were also procured from Sigma-Aldrich. In addition, to establish baseline antibacterial susceptibility for each strain we also determined MICs for drugs currently used to treat M. abscessus infections. They are linezolid, cefoxitin, kanamycin, ciprofloxacin, moxifloxacin, amikacin, tigecycline, imipenem, tobramycin, trimethoprim/sulfamethoxazole, and clarithromycin. M. abscessus growth was evaluated by visual inspection of pellets after 3 days of incubation (the exception being clarithromycin for which incubation was extended to 14 days) at 30° C. without shaking per CLSI guidelines. In addition to assessment in 7H9 complete medium, we also used cation adjusted Mueller-Hinton broth for MIC studies for the reference strain M. abscessus ATCC 19977. All experiments were repeated and the final data represent the average of two biological replicates.
We studied the utility of β-lactamase inhibitors sulbactam, tazobactam, and avibactam in restoring in vitro potencies of carbapenems against M. abscessus using the reference drug-susceptible strain ATCC 19977. We determined MICs of ertapenem, meropenem, imipenem, doripenem, biapenem, faropenem, tebipenem and panipenem alone or in the presence of the aforementioned […] β-lactamase inhibitors.

[2] = tested on: M. abscessus clinical strains; test: Broth microdilution MIC of carbapenems with and without avibactam, twenty eight clinical isolates; assay type: cell-based, Mycobacterium abscessus; details: for Average reduction in MICs of the carbapenems in combination with avibactam: twenty eight clinical strains; for Average reduction in MICs of the carbapenems in combination with avibactam / Effect of avibactam on the MIC of the carbapenem, in words: avibactam 4 μg/mL; for Effect of avibactam on the MIC of the carbapenem, in words: clinical strains
From the text: Twenty eight unique clinical isolates of M. abscessus were used in this study. These strains were obtained de-identified from the archive of the clinical microbiology laboratory of the Johns Hopkins University Hospital per institutional ethical guidelines. They were isolated over a 10 year period, from 2005-2015, from patients that were temporally and geographically unrelated. No two isolates are from the same patient. Those displaying a high level of resistance to antibacterials used for M. abscessus infection were selected for this study. All strains obtained prior to 2014 were identified to the M. abscessus complex level using a variety of methods including 16S rDNA sequencing in conjunction with selected biochemical testing such as sodium citrate. More recent isolates (those isolated after 2014) were identified using MALDI ToF mass spectrometry in which a Bruker MicroFlex LT (MicroFlex LT) mass spectrometer and Bruker Biotyper software and existing database (version 2.0, Bruker) were employed. Sub-speciation within the M. abscessus complex, which helps to distinguish between M. abscessus sensu stricto, M. massiliense, and M. bolletii, was not done as this is not per the current standard of care at the Johns Hopkins Clinical Mycobacteriology Laboratory. Distinguishing between M. abscessus sensu stricto and M. massiliense is most often performed to guide therapy since M. massiliense is known to have a non-funtional erm gene and is therefore susceptible to macrolides. However, due to the high number of macrolide resistant M. abscessus complex isolates recovered at Johns Hopkins, most patient isolates are subjected to drug susceptibility testing, making speciation within the complex of lesser importance. Thus, the proportion of each subspecies within the M. abscessus complex for the Johns Hopkins strain collection is not known. M. abscessus ATCC 19977 was included as a reference drug-sensitive strain.
as §1

[3] = in vivo; cited from earlier work
[4] = ATCC19977, 7H9 broth, drug alone, read-out: Minimum inhibitory concentration, 7H9 broth
[5] = ATCC19977, carbapenem alone, single values given, read-out: MIC of carbapenems against the drug sensitive control strain
[6] = ATCC19977, cation-adjusted Mueller-Hinton broth, drug alone, read-out: Minimum inhibitory concentration, CAMHB only
[7] = cation-adjusted Mueller-Hinton broth
[8] = with avibactam, against M. abscessus

Row | SMILES | MIC [1, 4] [µg/mL] | MIC [1, 5] [µg/mL] | MIC [1, 6] [µg/mL] | Average reduction in MICs of the carbapenems in combination with avibactam [2] [fold] | Fold decrease of MIC by avibactam [2, 8] | MIC of carbapenem as reduced by avibactam [2, 8] [µg/mL] | Minimum inhibitory concentration, 7H9 + avibactam ([1]; 7H9 broth) [µg/mL] | Minimum inhibitory concentration, 7H9 + sulbactam ([1]; 7H9 broth) [µg/mL] | Minimum inhibitory concentration, 7H9 + tazobactam ([1]; 7H9 broth) [µg/mL] | Minimum inhibitory concentration, CAMHB + avibactam [1, 7] [µg/mL] | Ability of the β-lactamase inhibitor to reduce MICs of carbapenems, in words [1] | Average peak plasma concentration [3] [µg/mL] | Half-life [3] [h] | Effect of avibactam on the MIC of the carbapenem, in words [2] | MIC ([1]; ATCC19977, read-out: Minimum inhibitory concentration, 7H9 broth) [µg/mL]
1 | C[C@]1(Cn2ccnn2)[C@H](C(=O)O)N2C(=O)C[C@H]2S1(=O)=O [Tazobactam, tazobactam] | > 64 |  |  |  |  |  |  |  |  |  | failed to reduce the MICs; also recorded: failed to observe significant reduction in MIC |  |  |  | 
2 | C[C@@H](O)[C@H]1C(=O)N2C(C(=O)O)=C(S[C@@H]3CN[C@H](C(=O)Nc4cccc(C(=O)O)c4)C3)[C@H](C)[C@H]12 [Ertapenem, ertapenem] | 64 to 128 | 128 | 128 to 256 | > 13 |  |  | 4 to 8 | >64 | 32 to 64 | 8 to 16 |  | ~150 | ~4 | levels that are therapeutically relevant; also recorded: levels achievable in the blood | 
3 | CC1(C)[C@H](C(=O)O)N2C(=O)C[C@H]2S1(=O)=O [Sulbactam, sulbactam] |  |  |  |  |  |  |  |  |  |  | failed to reduce the MICs; also recorded: failed to observe significant reduction in MIC |  |  |  | > 64
4 | C[C@@H](O)[C@H]1C(=O)N2C(C(=O)O)=C(SC3CN(C4=NCCS4)C3)[C@H](C)[C@H]12 [Tebipenem, tebipenem] | 128 to 256 | 256 | 128 to 256 | > 38 | 32-64 fold | 4 to 8 | 4 to 8 | >64 | >64 | 8 to 16 |  | ~8 | 1 | levels that are therapeutically relevant; also recorded: largest reduction in MIC | 
5 | CC(=N)N1CC[C@H](SC2=C(C(=O)O)N3C(=O)[C@H]([C@@H](C)O)[C@H]3C2)C1 [Panipenem, panipenem] | 64 to 128 | 128 | 64 to 128 | 8 |  |  | 8 to 16 | 16 to 32 | 32 to 64 | 8 to 16 |  | ~22 |  | levels that are therapeutically relevant; also recorded: levels achievable in the blood | 
6 | C[C@@H](O)[C@H]1C(=O)N2C(C(=O)O)=C([C@H]3CCCO3)S[C@H]12 [Faropenem, faropenem] | 32 to 64 | 64 | 64 to 128 | 3 |  |  | 8 to 16 | 16 to 32 | 32 to 64 | 16 to 32 |  |  |  | least effective | 
7 | NC(=O)[C@@H]1CC[C@@H]2CN1C(=O)N2OS(=O)(=O)O [Avibactam, avibactam] | > 256 |  | > 256 |  |  |  |  |  |  |  | most active |  |  |  | 
8 | O=C(O)[C@H]1/C(=C/CO)O[C@@H]2CC(=O)N21 [clavulanate] |  |  |  |  |  |  |  |  |  |  | failed to observe significant reduction in MIC |  |  |  | 

Second part, led by results:

Row | MIC [1, 4] [µg/mL] | MIC [1, 5] [µg/mL] | MIC [1, 6] [µg/mL] | Average reduction in MICs of the carbapenems in combination with avibactam [2] [fold] | Fold decrease of MIC by avibactam [2, 8] | MIC of carbapenem as reduced by avibactam [2, 8] [µg/mL] | SMILES | Minimum inhibitory concentration, 7H9 + avibactam ([1]; 7H9 broth) [µg/mL] | Minimum inhibitory concentration, 7H9 + sulbactam ([1]; 7H9 broth) [µg/mL] | Minimum inhibitory concentration, 7H9 + tazobactam ([1]; 7H9 broth) [µg/mL] | Minimum inhibitory concentration, CAMHB + avibactam [1, 7] [µg/mL] | Ability of the β-lactamase inhibitor to reduce MICs of carbapenems, in words [1] | Average peak plasma concentration [3] [µg/mL] | Half-life [3] [h] | Effect of avibactam on the MIC of the carbapenem, in words [2] | MIC ([1]; ATCC19977, read-out: Minimum inhibitory concentration, 7H9 broth) [µg/mL]
9 | 8 to 16 | 16 | 16 to 32 | 5 |  |  | C[C@@H](O)[C@H]1C(=O)N2C(C(=O)[O-])=C(SC3Cn4cnc[n+]4C3)[C@H](C)[C@H]12 (some centres unmarked) [Biapenem, biapenem] | 2 to 4 | 4 to 8 | 8 to 16 | 8 to 16 |  |  |  |  | 
10 | 8 to 16 | 16 | 32 to 64 | 6 |  |  | C[C@@H](O)[C@H]1C(=O)N2C(C(=O)O)=C(S[C@@H]3CN[C@H](C(=O)N(C)C)C3)[C@H](C)[C@H]12 [Meropenem, meropenem] | 2 to 4 | 8 to 16 | 8 to 16 | 4 to 8 |  |  |  |  | 
11 | 4 to 8 | 8 | 8 to 16 | 2 |  |  | C[C@@H](O)[C@H]1C(=O)N2C(C(=O)O)=C(SCCN=CN)C[C@H]12 [Imipenem, imipenem] | 2 to 4 | 4 to 8 | 2 to 4 | 4 to 8 |  |  |  |  | 
12 | 8 to 16 | 16 | 16 to 32 | 6 |  |  | C[C@@H](O)[C@H]1C(=O)N2C(C(=O)O)=C(S[C@@H]3CN[C@H](CNS(N)(=O)=O)C3)[C@H](C)[C@H]12 [Doripenem, doripenem] | 2 to 4 | 8 to 16 | 8 to 16 | 4 to 8 |  |  |  |  | 
